In test [1] the test system is Staphylococcus aureus. Briefly: Antibacterial activity against methicillin-susceptible Staphylococcus aureus ATCC 29213 by CLSI M100-S17 protocol based broth dilution method. The format is functional. (In general: Dilution methods test growth across graded concentrations, often in twofold steps.)
The test system of test [2] is Staphylococcus aureus. The experiment in a line: Antibacterial activity against methicillin-resistant Staphylococcus aureus isolate SA1114 by CLSI M100-S17 protocol based broth dilution method. It counts as functional.

Structures are written as SMILES. Converted amounts (≈) assume the structure as drawn.

Consider 17 compounds from ChEMBL document CHEMBL4184242, “Synthesis and antibacterial studies of teixobactin analogues with non-isostere substitution of enduracididine” (2018).

For orientation: MIC means the smallest concentration in the dilution series that meets the test's criterion for growth inhibition. Low values mean greater potency, high ones weaker potency.

For the compound `CC[C@@H](C)[C@@H](NC(=O)[C@@H](CCC(N)=O)NC(=O)[C@H](CO)NC(=O)[C@@H](NC(=O)[C@@H](Cc1ccccc1)NC)[C@@H](C)CC)C(=O)N[C@H](C(=O)N[C@@H](CO)C(=O)N[C@H]1C(=O)N[C@@H](C)C(=O)N[C@@H](CO)C(=O)N[C@@H]([C@@H](C)CC)C(=O)O[C@H]1C)[C@@H](C)CC`, the MIC with Staphylococcus aureus [1] and in the test on Staphylococcus aureus [2] was 16 µg/mL (≈ 13.6 µM) throughout.
For `CC[C@@H](C)[C@@H](NC(=O)[C@@H](CCC(N)=O)NC(=O)[C@H](CO)NC(=O)[C@@H](NC(=O)[C@@H](Cc1ccccc1)NC)[C@@H](C)CC)C(=O)N[C@H](C(=O)N[C@@H](CO)C(=O)N[C@H]1C(=O)N[C@@H](C)C(=O)N[C@@H](Cc2ccc([N+](=O)[O-])cc2)C(=O)N[C@@H]([C@@H](C)CC)C(=O)O[C@H]1C)[C@@H](C)CC`, the results for the MIC against Staphylococcus aureus [1] and against Staphylococcus aureus [2] were 0.5 µg/mL (≈ 0.39 µM) and 4 µg/mL (≈ 3.12 µM), respectively.
In the case of `CC[C@@H](C)[C@@H](NC(=O)[C@@H](CCC(N)=O)NC(=O)[C@H](CO)NC(=O)[C@@H](NC(=O)[C@@H](Cc1ccccc1)NC)[C@@H](C)CC)C(=O)N[C@H](C(=O)N[C@@H](CO)C(=O)N[C@H]1C(=O)N[C@@H](C)C(=O)N[C@@H](CC2CCCCC2)C(=O)N[C@@H]([C@@H](C)CC)C(=O)O[C@H]1C)[C@@H](C)CC`, the MIC is 0.5 µg/mL (≈ 0.403 µM) against Staphylococcus aureus [1] and 2 µg/mL (≈ 1.61 µM) in the test on Staphylococcus aureus [2].
For the compound `CC[C@@H](C)[C@@H](NC(=O)[C@@H](CCC(N)=O)NC(=O)[C@H](CO)NC(=O)[C@@H](NC(=O)[C@@H](Cc1ccccc1)NC)[C@@H](C)CC)C(=O)N[C@H](C(=O)N[C@@H](CO)C(=O)N[C@H]1C(=O)N[C@@H](C)C(=O)N[C@@H](Cc2ccc(O)c([N+](=O)[O-])c2)C(=O)N[C@@H]([C@@H](C)CC)C(=O)O[C@H]1C)[C@@H](C)CC`, the MIC was 1 µg/mL (≈ 0.771 µM) in the test on Staphylococcus aureus [1] and 4 µg/mL (≈ 3.09 µM) in the test with Staphylococcus aureus [2].
For `CCCC[C@@H]1NC(=O)[C@H](C)NC(=O)[C@H](NC(=O)[C@H](CO)NC(=O)[C@@H](NC(=O)[C@H](NC(=O)[C@@H](CCC(N)=O)NC(=O)[C@H](CO)NC(=O)[C@@H](NC(=O)[C@@H](Cc2ccccc2)NC)[C@@H](C)CC)[C@H](C)CC)[C@@H](C)CC)[C@H](C)OC(=O)[C@H]([C@@H](C)CC)NC1=O`, in that order: 0.5 µg/mL (≈ 0.416 µM) and 2 µg/mL (≈ 1.66 µM).
As to `CC[C@@H](C)[C@@H](NC(=O)[C@@H](CCC(N)=O)NC(=O)[C@H](CO)NC(=O)[C@@H](NC(=O)[C@@H](Cc1ccccc1)NC)[C@@H](C)CC)C(=O)N[C@H](C(=O)N[C@@H](CO)C(=O)N[C@H]1C(=O)N[C@@H](C)C(=O)N[C@@H](CCSC)C(=O)N[C@@H]([C@@H](C)CC)C(=O)O[C@H]1C)[C@@H](C)CC`, the MIC is 0.25 µg/mL (≈ 0.205 µM) in the test on Staphylococcus aureus [1] and 1 µg/mL (≈ 0.82 µM) against Staphylococcus aureus [2].
Turning to `CC[C@@H](C)[C@@H](NC(=O)[C@@H](CCC(N)=O)NC(=O)[C@H](CO)NC(=O)[C@@H](NC(=O)[C@@H](Cc1ccccc1)NC)[C@@H](C)CC)C(=O)N[C@H](C(=O)N[C@@H](CO)C(=O)N[C@H]1C(=O)N[C@@H](C)C(=O)N2CCC[C@H]2C(=O)N[C@@H]([C@@H](C)CC)C(=O)O[C@H]1C)[C@@H](C)CC`, the minimal inhibitory concentration (MIC) with Staphylococcus aureus [1] and with Staphylococcus aureus [2] was not below 32 µg/mL in each case.
For the compound `CC[C@@H](C)[C@@H](NC(=O)[C@@H](CCC(N)=O)NC(=O)[C@H](CO)NC(=O)[C@@H](NC(=O)[C@@H](Cc1ccccc1)NC)[C@@H](C)CC)C(=O)N[C@H](C(=O)N[C@@H](CO)C(=O)N[C@H]1C(=O)N[C@@H](C)C(=O)N[C@@H](C(C)C)C(=O)N[C@@H]([C@@H](C)CC)C(=O)O[C@H]1C)[C@@H](C)CC`, the MIC came out at 0.5 µg/mL (≈ 0.421 µM) against Staphylococcus aureus [1] and 2 µg/mL (≈ 1.68 µM) in the test with Staphylococcus aureus [2].
For `CC[C@@H](C)[C@@H](NC(=O)[C@@H](CCC(N)=O)NC(=O)[C@H](CO)NC(=O)[C@@H](NC(=O)[C@@H](Cc1ccccc1)NC)[C@@H](C)CC)C(=O)N[C@H](C(=O)N[C@@H](CO)C(=O)N[C@H]1C(=O)N[C@@H](C)C(=O)N[C@@H]([C@@H](C)CC)C(=O)N[C@@H]([C@@H](C)CC)C(=O)O[C@H]1C)[C@@H](C)CC`, in that order: 0.5 µg/mL (≈ 0.416 µM) and 1 µg/mL (≈ 0.832 µM).
In the same order, the values of `CC[C@@H](C)[C@@H](NC(=O)[C@@H](CCC(N)=O)NC(=O)[C@H](CO)NC(=O)[C@@H](NC(=O)[C@@H](Cc1ccccc1)NC)[C@@H](C)CC)C(=O)N[C@H](C(=O)N[C@@H](CO)C(=O)N[C@H]1C(=O)N[C@@H](C)C(=O)N[C@@H](Cc2ccc(Cl)cc2)C(=O)N[C@@H]([C@@H](C)CC)C(=O)O[C@H]1C)[C@@H](C)CC` are 1 µg/mL (≈ 0.787 µM) and 4 µg/mL (≈ 3.15 µM).
Take `CC[C@@H](C)[C@@H](NC(=O)[C@@H](CCC(N)=O)NC(=O)[C@H](CO)NC(=O)[C@@H](NC(=O)[C@@H](Cc1ccccc1)NC)[C@@H](C)CC)C(=O)N[C@H](C(=O)N[C@@H](CO)C(=O)N[C@H]1C(=O)N[C@@H](C)C(=O)N[C@@H](CC(C)C)C(=O)N[C@@H]([C@@H](C)CC)C(=O)O[C@H]1C)[C@@H](C)CC`: the values for the MIC against Staphylococcus aureus [1] and in the test with Staphylococcus aureus [2] were 0.5 µg/mL (≈ 0.416 µM) and 2 µg/mL (≈ 1.66 µM), respectively.
In the same order, the values of `CC[C@@H](C)[C@@H](NC(=O)[C@@H](CCC(N)=O)NC(=O)[C@H](CO)NC(=O)[C@@H](NC(=O)[C@@H](Cc1ccccc1)NC)[C@@H](C)CC)C(=O)N[C@H](C(=O)N[C@@H](CO)C(=O)N[C@H]1C(=O)N[C@@H](C)C(=O)N[C@@H](CC(=O)O)C(=O)N[C@@H]([C@@H](C)CC)C(=O)O[C@H]1C)[C@@H](C)CC` are not below 32 µg/mL and not below 32 µg/mL.
For `CC[C@@H](C)[C@@H](NC(=O)[C@@H](CCC(N)=O)NC(=O)[C@H](CO)NC(=O)[C@@H](NC(=O)[C@@H](Cc1ccccc1)NC)[C@@H](C)CC)C(=O)N[C@H](C(=O)N[C@@H](CO)C(=O)N[C@H]1C(=O)N[C@@H](C)C(=O)N[C@@H](CCC(N)=O)C(=O)N[C@@H]([C@@H](C)CC)C(=O)O[C@H]1C)[C@@H](C)CC`, in that order: 16 µg/mL (≈ 13.2 µM) and 16 µg/mL (≈ 13.2 µM).
In the same order, the values of `CC[C@@H](C)[C@@H](NC(=O)[C@@H](CCC(N)=O)NC(=O)[C@H](CO)NC(=O)[C@@H](NC(=O)[C@@H](Cc1ccccc1)NC)[C@@H](C)CC)C(=O)N[C@H](C(=O)N[C@@H](CO)C(=O)N[C@H]1C(=O)N[C@@H](C)C(=O)N[C@@H](C2CCCCC2)C(=O)N[C@@H]([C@@H](C)CC)C(=O)O[C@H]1C)[C@@H](C)CC` are 0.25 µg/mL (≈ 0.204 µM) and 1 µg/mL (≈ 0.815 µM).
Turning to `CC[C@@H](C)[C@@H](NC(=O)[C@@H](CCC(N)=O)NC(=O)[C@H](CO)NC(=O)[C@@H](NC(=O)[C@@H](Cc1ccccc1)NC)[C@@H](C)CC)C(=O)N[C@H](C(=O)N[C@@H](CO)C(=O)N[C@H]1C(=O)N[C@@H](C)C(=O)N[C@@H](Cc2ccc(F)cc2)C(=O)N[C@@H]([C@@H](C)CC)C(=O)O[C@H]1C)[C@@H](C)CC`, the MIC in the test with Staphylococcus aureus [1] came to 0.5 µg/mL (≈ 0.399 µM); in the test with Staphylococcus aureus [2], 4 µg/mL (≈ 3.19 µM).
For `CC[C@@H](C)[C@@H](NC(=O)[C@@H](CCC(N)=O)NC(=O)[C@H](CO)NC(=O)[C@@H](NC(=O)[C@@H](Cc1ccccc1)NC)[C@@H](C)CC)C(=O)N[C@H](C(=O)N[C@@H](CO)C(=O)N[C@H]1C(=O)N[C@@H](C)C(=O)N[C@@H](CSC(C)(C)C)C(=O)N[C@@H]([C@@H](C)CC)C(=O)O[C@H]1C)[C@@H](C)CC`, in that order: 2 µg/mL (≈ 1.6 µM) and 4 µg/mL (≈ 3.21 µM).
For the compound `CC[C@@H](C)[C@@H](NC(=O)[C@@H](CCC(N)=O)NC(=O)[C@H](CO)NC(=O)[C@@H](NC(=O)[C@@H](Cc1ccccc1)NC)[C@@H](C)CC)C(=O)N[C@H](C(=O)N[C@@H](CO)C(=O)N[C@H]1C(=O)N[C@@H](C)C(=O)NC(C)(C)C(=O)N[C@@H]([C@@H](C)CC)C(=O)O[C@H]1C)[C@@H](C)CC`, the MIC in the test on Staphylococcus aureus [1] and against Staphylococcus aureus [2] was not below 32 µg/mL each time.
